Results as given in PMC7115377 (European Journal of Medicinal Chemistry, 2018).
Read-outs that look alike come from different tables or passages of the source.

Assays:
[1] = test system: Respiratory syncytial virus (RSV; strain Long); experiment: microbe, parasite or virus in culture; assay type: cell-based; details: human respiratory syncytial virus, HeLa, read-out: EC50 RSV
[2] = test system: HeLa cells; details: microscopy
[3] = test system: influenza B virus; details: read-out: EC50 influenza B; previous series; ref [21]; cited from earlier work
[4] = test system: influenza B/Ned/537/05; experiment: Influenza B antiviral assay in MDCK cells; assay type: cell-based; details: Influenza B virus, read-out: mean EC50 anti-influenza B activity
[5] = test system: MDCK cells
[6] = test system: influenza B/Ned/537/05; experiment: Influenza B antiviral assay in MDCK cells; assay type: cell-based; details: Influenza B virus, read-out: EC50 Influenza B, microscopic method

Row | SMILES | Cytotoxicity MCC [2] | also measured
1 | NC(=O)c1ncn([C@@H]2O[C@H](CO)[C@@H](O)[C@H]2O)n1 [Ribavirin] | – | EC50 [1]: 5.8 µM
2 | COc1cccc(N2C(N)=NC(N)=NC23CCNCC3)c1 [Compound 7, 2,4-Diamino-1-(3-methoxyphenyl)-1,3,5,9-tetraazaspiro[5.5]undeca-2,4-diene] | >100 µM | –
3 | COc1cccc(N2C(N)=NC(N)=NC23CCN(C(=O)OC(C)(C)C)CC3)c1 [Compound 8, Tert-butyl 2,4-diamino-1-(3-methoxyphenyl)-1,3,5,9-tetraazaspiro[5.5]undeca-2,4-diene-9-carboxylate] | >100 µM | –
4 | COCCN1C(N)=NC(N)=NC12CCN(S(=O)(=O)c1ccccc1)CC2 [Compound 21, 2,4-Diamino-9-(phenylsulfonyl)-1-(2-methoxyethyl)-1,3,5,9-tetraazaspiro[5.5]undeca-2,4-diene] | >100 µM | –
5 | CC(=O)N[C@H]1[C@H]([C@H](O)[C@H](O)CO)OC(C(=O)O)=C[C@@H]1NC(=N)N [Zanamivir] | – | EC50 [3]: 60 nM
6 | Cc1ccc(C(=O)N2CCC3(CC2)N=C(N)N=C(N)N3c2cccc(Cl)c2)cc1 [Compound 4, 1-(3-Chlorophenyl)-2,4-diamino-9-(p-tolylcarbonyl)-1,3,5,9-tetraazaspiro[5.5]undeca-2,4-diene] | ≥100 µM | EC50 [4]: ~200 nM; CC50 fold higher than corresponding MCC [5]: 22 fold
7 | NC1=NC2(CCN(C(=O)c3ccc4ccccc4c3)CC2)N(c2cccc(Cl)c2)C(N)=N1 [Compound 5, 1-(3-Chlorophenyl)-2,4-diamino-9-[(naphthalen-2-yl)carbonyl]-1,3,5,9-tetraazaspiro-[5.5]undeca-2,4-diene] | ≥100 µM | –
8 | CCCCC(=O)N1CCC2(CC1)N=C(N)N=C(N)N2c1cccc(OC)c1 [Compound 9, 2,4-Diamino-1-(3-methoxyphenyl)-9-(1-oxopent-1-yl)-1,3,5,9-tetraazaspiro[5.5]undeca-2,4-diene] | >100 µM | –
9 | CC(C)(C)OC(=O)N1CCC2(CC1)N=C(N)N=C(N)N2Cc1cccc(Cl)c1 [Compound 11, Tert-butyl 1-(3-Chlorobenzyl)-2,4-diamino-1,3,5,9-tetraazaspiro[5.5]undeca-2,4-diene-9-carboxylate] | >100 µM | –
10 | NC1=NC2(CCN(C(=O)C3CCC3)CC2)N(c2cccc(Cl)c2)C(N)=N1 [Compound 3, 9-Cyclobutylcarbonyl-1-(3-chlorophenyl)-2,4-diamino-1,3,5,9-tetraazaspiro[5.5]undeca-2,4-diene] | >100 µM | –
11 | COc1cccc(N2C(N)=NC(N)=NC23CCN(C(=O)c2ccc(C(F)(F)F)cc2C)CC3)c1 [Compound 10, 2,4-Diamino-1-(3-methoxyphenyl)-9-[(2-methyl-4-(trifluoromethyl)phenyl)carbonyl]-1,3,5,9-tetraazaspiro[5.5]undeca-2,4-diene] | >100 µM | –
12 | CCS(=O)(=O)N1CCC2(CC1)N=C(N)N=C(N)N2CCOC [Compound 20, 2,4-Diamino-9-(ethylsulfonyl)-1-(2-methoxyethyl)-1,3,5,9-tetraazaspiro[5.5]undeca-2,4-diene] | >100 µM | –
13 | NC1=NC2(CCNCC2)N(c2cccc(Cl)c2)C(N)=N1 [Compound 1, 1-(3-Chlorophenyl)-2,4-diamino-1,3,5,9-tetraazaspiro[5.5]undeca-2,4-diene] | >100 µM | –
14 | CC(C)(C)OC(=O)N1CCC2(CC1)N=C(N)N=C(N)N2c1cccc(Cl)c1 [Compound 2, Tert-butyl 1-(3-Chlorophenyl)-2,4-diamino-1,3,5,9-tetraazaspiro[5.5]undeca-2,4-diene-9-carboxylate] | >100 µM | –
15 | COCCN1C(N)=NC(N)=NC12CCN(C(=O)NC1CCC(C)CC1)CC2 (centres unmarked) [Compound 18, 2,4-Diamino-9-[(4-methylcyclohexyl)carbamoyl]-1-(2-methoxyethyl)-1,3,5,9-tetraazaspiro-[5.5]undeca-2,4-diene] | >100 µM | –
16 | NC1=NC2(CCN(C(=O)Nc3ccc(F)cc3)CC2)N(c2cccc(Cl)c2)C(N)=N1 [Compound 6, 1-(3-Chlorophenyl)-2,4-diamino-9-[N-(4-fluorophenyl)carbamoyl]-1,3,5,9-tetraazaspiro-[5.5]undeca −2,4-diene] | ≥100 µM | EC50 [6]: 350 nM; CC50 fold higher than corresponding MCC [5]: 319 fold
